Data taken from patent US20250057770A1, “Monomethylfumarate Prodrug Compositions” (Alkermes Pharma Ireland Limited, priority 2015, published 2025).
“And” between values parts separate entries of the source, which are not always exact repeats. Identical values can stand only once. Counter-ions that a name gives are not always drawn.

How the values were obtained:
Assay type in all cases: in vivo, human
[1] = Phase I 2-period cross-over study (Part 2): safety and tolerability, adverse events; settings: DMF 240 mg or Compound 1 DR 420 mg
Text: (§1) (The DMF oral dosage form used in this study was […]®, (Biogen Idec, Inc Cambridge, MA, USA)). A total of 16 subjects were enrolled and randomized to a treatment sequence.
Each dosing period was separated by a wash-out period of 7 days. […]

[2] = Single ascending dose study (Part 1): safety and tolerability, adverse events
Method: (§2) A randomized, double-blind, placebo-controlled, sequential, single ascending dose study was conducted in healthy subjects to investigate the safety, tolerability and pharmacokinetics of capsules containing delayed release (DR) mini-tablets of Compound 1 from Example 2.1 (“Compound 1 DR capsules”). Up to 7 cohorts were included with 8 subjects in each cohort. In each cohort, 6 subjects received Compound 1 DR capsules and 2 subjects were treated with placebo in fasted condition. Compound 1 doses investigated were 49 mg (Cohort 1), 105 mg (Cohort 2), 210 mg (Cohort 3), 420 mg (Cohort 4), 630 mg (Cohort 5), 840 mg (Cohort 6), and 980 mg (Cohort 7) (all weights being mg of prodrug).

[3] = Single ascending dose study (Part 1): plasma MMF pharmacokinetics; settings: oral dosing, 49 to 980 mg
Method: as §2
(§3) Blood samples were collected from all subjects prior to dosing and at 0.25, 0.50, 1, 1.50, 2, 2.50, 3, 4, 6, 8, 10, 12, and 24 hours after dosing. Plasma obtained from blood samples were analyzed for Compound 1, MMF and another metabolite using validated LC-MS/MS method. The plasma concentration-time profiles were analyzed via Non-Compartmental analysis (NCA) using Phoenix WinNonLin, version 6.3.

[4] = Phase I 2-period cross-over study (Part 2): plasma MMF pharmacokinetics; settings: 420 mg Compound 1 DR versus 240 mg DMF
Method: as §1
Each dosing period was separated by a wash-out period of 7 days.
as §3

Q: With `COC(=O)/C=C/C(=O)OCCN1C(=O)CCC1=O` [Compound 1, 2-(2,5-dioxopyrrolidin-1-yl)ethyl methyl fumarate] as the compound, how does the “Subjects with Flushing” value ([1]; N = 12) read?
A: 8 (66.7%) n (%)

Q: What about the “Subjects with Gastrointestinal disorders (SOC)” value ([1]; N = 12) of the same compound?
A: 1 (8.3%) n (%)

Q: What about the “Subjects with Abdominal discomfort” value ([2]; 49 mg, N = 6) of the same compound?
A: 0 n (%)

Q: And the “Subjects with Abdominal pain” value ([2]; 49 mg, N = 6)?
A: 0 n (%)

Q: What about the “Subjects with Diarrhoea” value ([2]; 49 mg, N = 6) of the same compound?
A: 0 n (%)

Q: What about the “Subjects with Flatulence” value ([2]; 49 mg, N = 6) of the same compound?
A: 0 n (%)

Q: And the “Subjects with Flushing” value ([2]; 49 mg, N = 6)?
A: 1 (16.7) n (%)

Q: And the “Subjects with Frequent bowel movements” value ([2]; 49 mg, N = 6)?
A: 1 (16.7) n (%)

Q: And the “Subjects with Gastrointestinal disorders (SOC)” value ([2]; 49 mg, N = 6)?
A: 1 (16.7) n (%)

Q: What about the “Subjects with Nausea” value ([2]; 49 mg, N = 6) of the same compound?
A: 0 n (%)

Q: What about the “Subjects with Vascular disorders (SOC)” value ([2]; 49 mg, N = 6) of the same compound?
A: 1 (16.7) n (%)

Q: And the “Subjects with Abdominal discomfort” value ([2]; 105 mg, N = 6)?
A: 0 n (%)

Q: What about the “Subjects with Abdominal pain” value ([2]; 105 mg, N = 6) of the same compound?
A: 0 n (%)

Q: And the “Subjects with Diarrhoea” value ([2]; 105 mg, N = 6)?
A: 0 n (%)

Q: What about the “Subjects with Flatulence” value ([2]; 105 mg, N = 6) of the same compound?
A: 0 n (%)

Q: What about the “Subjects with Flushing” value ([2]; 105 mg, N = 6) of the same compound?
A: 0 n (%)

Q: What about the “Subjects with Frequent bowel movements” value ([2]; 105 mg, N = 6) of the same compound?
A: 0 n (%)

Q: And the “Subjects with Gastrointestinal disorders (SOC)” value ([2]; 105 mg, N = 6)?
A: 0 n (%)

Q: What about the “Subjects with Nausea” value ([2]; 105 mg, N = 6) of the same compound?
A: 0 n (%)

Q: And the “Subjects with Vascular disorders (SOC)” value ([2]; 105 mg, N = 6)?
A: 0 n (%)

Q: What about the “Subjects with Abdominal discomfort” value ([2]; 210 mg, N = 6) of the same compound?
A: 1 (16.7) n (%)

Q: What about the “Subjects with Abdominal pain” value ([2]; 210 mg, N = 6) of the same compound?
A: 0 n (%)

Q: What about the “Subjects with Diarrhoea” value ([2]; 210 mg, N = 6) of the same compound?
A: 0 n (%)

Q: What about the “Subjects with Flatulence” value ([2]; 210 mg, N = 6) of the same compound?
A: 0 n (%)

Q: And the “Subjects with Flushing” value ([2]; 210 mg, N = 6)?
A: 2 (33.3) n (%)

Q: And the “Subjects with Frequent bowel movements” value ([2]; 210 mg, N = 6)?
A: 0 n (%)

Q: And the “Subjects with Gastrointestinal disorders (SOC)” value ([2]; 210 mg, N = 6)?
A: 1 (16.7) n (%)

Q: What about the “Subjects with Nausea” value ([2]; 210 mg, N = 6) of the same compound?
A: 0 n (%)

Q: What about the “Subjects with Vascular disorders (SOC)” value ([2]; 210 mg, N = 6) of the same compound?
A: 2 (33.3) n (%)

Q: And the “Subjects with Abdominal discomfort” value ([2]; 420 mg, N = 6)?
A: 0 n (%)

Q: And the “Subjects with Abdominal pain” value ([2]; 420 mg, N = 6)?
A: 0 n (%)

Q: What about the “Subjects with Diarrhoea” value ([2]; 420 mg, N = 6) of the same compound?
A: 0 n (%)

Q: And the “Subjects with Flatulence” value ([2]; 420 mg, N = 6)?
A: 0 n (%)

Q: And the “Subjects with Flushing” value ([2]; 420 mg, N = 6)?
A: 4 (66.7) n (%)

Q: And the “Subjects with Frequent bowel movements” value ([2]; 420 mg, N = 6)?
A: 0 n (%)

Q: What about the “Subjects with Gastrointestinal disorders (SOC)” value ([2]; 420 mg, N = 6) of the same compound?
A: 0 n (%)

Q: What about the “Subjects with Nausea” value ([2]; 420 mg, N = 6) of the same compound?
A: 0 n (%)

Q: What about the “Subjects with Vascular disorders (SOC)” value ([2]; 420 mg, N = 6) of the same compound?
A: 4 (66.7) n (%)

Q: What about the “Subjects with Abdominal discomfort” value ([2]; 630 mg, N = 6) of the same compound?
A: 0 n (%)

Q: And the “Subjects with Abdominal pain” value ([2]; 630 mg, N = 6)?
A: 0 n (%)

Q: What about the “Subjects with Diarrhoea” value ([2]; 630 mg, N = 6) of the same compound?
A: 1 n (%)

Q: And the “Subjects with Flatulence” value ([2]; 630 mg, N = 6)?
A: 0 n (%)

Q: What about the “Subjects with Flushing” value ([2]; 630 mg, N = 6) of the same compound?
A: 6 n (%)

Q: And the “Subjects with Frequent bowel movements” value ([2]; 630 mg, N = 6)?
A: 0 n (%)

Q: What about the “Subjects with Gastrointestinal disorders (SOC)” value ([2]; 630 mg, N = 6) of the same compound?
A: 1 n (%)

Q: And the “Subjects with Nausea” value ([2]; 630 mg, N = 6)?
A: 0 n (%)

Q: What about the “Subjects with Vascular disorders (SOC)” value ([2]; 630 mg, N = 6) of the same compound?
A: 6 n (%)

Q: What about the “Subjects with Abdominal discomfort” value ([2]; 840 mg, N = 6) of the same compound?
A: 0 n (%)

Q: And the “Subjects with Abdominal pain” value ([2]; 840 mg, N = 6)?
A: 0 n (%)

Q: And the “Subjects with Diarrhoea” value ([2]; 840 mg, N = 6)?
A: 1 (16.7) n (%)

Q: What about the “Subjects with Flatulence” value ([2]; 840 mg, N = 6) of the same compound?
A: 2 (33.3) n (%)

Q: What about the “Subjects with Flushing” value ([2]; 840 mg, N = 6) of the same compound?
A: 5 (83.3) n (%)

Q: What about the “Subjects with Frequent bowel movements” value ([2]; 840 mg, N = 6) of the same compound?
A: 0 n (%)

Q: And the “Subjects with Gastrointestinal disorders (SOC)” value ([2]; 840 mg, N = 6)?
A: 2 (33.3) n (%)

Q: And the “Subjects with Nausea” value ([2]; 840 mg, N = 6)?
A: 0 n (%)

Q: What about the “Subjects with Vascular disorders (SOC)” value ([2]; 840 mg, N = 6) of the same compound?
A: 5 (83.3) n (%)

Q: And the “Subjects with Abdominal discomfort” value ([2]; 980 mg, N = 6)?
A: 1 n (%)

Q: And the “Subjects with Abdominal pain” value ([2]; 980 mg, N = 6)?
A: 1 n (%)

Q: And the “Subjects with Diarrhoea” value ([2]; 980 mg, N = 6)?
A: 2 n (%)

Q: And the “Subjects with Flatulence” value ([2]; 980 mg, N = 6)?
A: 1 n (%)

Q: What about the “Subjects with Flushing” value ([2]; 980 mg, N = 6) of the same compound?
A: 6 n (%)

Q: What about the “Subjects with Frequent bowel movements” value ([2]; 980 mg, N = 6) of the same compound?
A: 0 n (%)

Q: What about the “Subjects with Gastrointestinal disorders (SOC)” value ([2]; 980 mg, N = 6) of the same compound?
A: 4 n (%)

Q: And the “Subjects with Nausea” value ([2]; 980 mg, N = 6)?
A: 2 n (%)

Q: And the “Subjects with Vascular disorders (SOC)” value ([2]; 980 mg, N = 6)?
A: 6 n (%)

Q: What about the “tolerability during the trial” value ([2]; 49 to 980 mg single doses) of the same compound?
A: well tolerated

Q: What about the Subjects with Flushing ([2]; dose levels ≥420 mg) of the same compound?
A: > 50%

Q: What about the “conversion to metabolite MMF in plasma” value [3] of the same compound?
A: rapidly converted

Q: And the “PK variability (% CV) compared to DMF treatment” value [4]?
A: less PK variability

Q: And the “PK variability (% CV) compared to DMF treatment” value ([4]; listed as 2-(2,5-dioxopyrrolidin-1-yl)ethyl methyl fumarate)?
A: less variability

Q: Which results are given for `COC(=O)/C=C/C(=O)OC` [DMF, Dimethyl fumarate]?
A: mean onset of flushing [1]: 1.2 h; Subjects with Constipation ([1]; N = 12): 0 n (%); Subjects with Diarrhoea ([1]; N = 12): 1 (8.3%) n (%) and 1 n (%); Subjects with Eructation ([1]; N = 12): 1 n (%); Subjects with Flatulence ([1]; N = 12): 1 n (%); Subjects with Flushing ([1]; N = 12): 8 (66.7%) n (%) and 8 n (%); Subjects with Gastrointestinal disorders (SOC) ([1]; N = 12): 5 (41.7%) n (%) and 5 n (%); Subjects with Nausea ([1]; N = 12): 3 (25%) n (%) and 3 n (%); Subjects with Retching ([1]; N = 12): 1 (8.3%) n (%) and 1 n (%); Subjects with Vascular disorders (SOC) ([1]; N = 12): 8 n (%)
